One may read the IC50 as the concentration at which inhibition is half-maximal. Low values mean greater potency in that assay, high ones weaker potency in that assay. One may read the EC50 as the concentration that produces a half-maximal response.

These results are taken from patent US12527773B2, “Flavi-block: a pan-flavivirus inhibitor” (Baden-Württemberg Stiftung GmbH, priority 2020, dated 2026).

Read-outs that look alike come from different tables or passages of the source.

Assay [1] relates to DEN1/2. The assay can be described thus: IC50 in established virological assays (Table 1), DEN1/2. The format is cell-based. The conditions noted are these: Dengue virus. The text has this:
In summary, a set of C10 derivatives (FIG. 12) was designed, synthesized and tested against HCV (which is considered as an established system to monitor drug effects against Flaviviridae) as well as DENV for comprehensive structure-activity relationship (SAR) analysis and target validation.

Assay [2] concerns FluAV. Put plainly: IC50 in established virological assays (Table 1), FluAV. It is filed as cell-based. The settings on record: Influenza A virus.
In assay [3] the test system is MeV. Put plainly: IC50 in established virological assays (Table 1), MeV. The format is cell-based, Measles morbillivirus. How it is done: (§1) In summary, a set of C10 derivatives (FIG. 12) was designed, synthesized and tested against HCV (which is considered as an established system to monitor drug effects against Flaviviridae) as well as DENV for comprehensive structure-activity relationship (SAR) analysis and target validation. IC50 and CC50 values for compound C10 were determined in established virological assays (Table 1). […] Further, said experiments underline the specificity of compound C10 for flaviviruses.

Assay [4] relates to HIV. Put plainly: IC50 in established virological assays (Table 1), HIV. It is filed as cell-based. Here is the method: as §1
Assay [5] concerns HBV. The assay can be described thus: IC50 in established virological assays (Table 1), HBV. The format is cell-based, Hepatits B Virus. How it is done:
as §1

The test system of assay [6] is DENV4. Put plainly: Plaque assay of released virus, DENV4-infected Vero cells. The format is cell-based. The conditions noted are these: Dengue virus. Here is the method:
(§2) Vero cells were infected with DENV1-4 at an MOI of 1 for 2 h (post infection, p.i., (A)), after which virus was removed, and fresh maintenance medium containing 2% FCS together with the indicated concentration of C10 added. For co-treat condition (c.t., (B)), Vero cells were infected with DENV1-4 at an MOI of 1 in the presence of C10 for 2 h, followed by removal of the virus/C10 inoculums, and addition of fresh 2% fetal calf serum maintenance medium. […] Results represent the mean ±SD for duplicate wells from a single assay, representative of 2 independent experiments (cf. Tables 2A and 2B, infra, for pooled data).
Vero and BHK-21 cells were maintained in DMEM media supplemented with 10% heat-inactivated FBS at 37° C. in a humidified incubator supplemented with 5% CO2; A549 cells were maintained in F-12K medium supplemented with 10% heat-inactivated Fetal Bovine Serum (FBS), 2 mM L-glutamine, 50 U/I penicillin, 0.05 mg/l streptomycin. […] Viral titer was subsequently determined by plaque assay (see below).
Vero cells were seeded into 24-well plates at a density of 2×10^5 cells/well and grown overnight in culture medium at 37° C. with 5% CO2 prior to infection with RSV, KUNV, ZIKV as indicated. […] The stain was removed by rinsing the cells with tap water, and the viral plaques were counted visually. […]

Assay [7] has as its system DENV2. The assay can be described thus: RT-qPCR analysis of virus genomes, DENV2. It is filed as cell-based. The conditions noted are these: Dengue virus. How it is done: as §2
(§3) Viral RNA was extracted using Isolate II RNA extraction kit (Bioline), and the absolute number of RNA copies determined by Taqman One Step RT-qPCR (Applied Biosystems) by extrapolation from a standard curve generated from in vitro—transcribed virus RNA.
(§4) It was decided to test the ability of C10 to inhibit the flaviviruses DENV1-4, KUNV and ZIKV, in addition to the paramyxovirus RSV, as a control.
In general terms: Quantitative PCR measures a nucleic acid by following its amplification.

For assay [8], the system named is RSV. Put plainly: RT-qPCR analysis of virus genomes, RSV. The format is cell-based. The conditions noted are these: human respiratory syncytial virus, c.t., read-out: EC50 from RT-qPCR analysis.
Excerpt: as §3, §4

Take `CCN1/C(=C\C=C\c2sc3cc(NC(C)=O)ccc3[n+]2CC)Sc2cc(NC(C)=O)ccc21.[I-]` [C10, 6-acetamido-2-((1E,3E)-3-(6-acetamido-3-ethylbenzo[d]thiazol-2(3H)-ylidene)prop-1-en-1-yl)-3-ethylbenzo[d]thiazol-3-ium iodide]: the 50% inhibitory concentration (IC50) is 110 to 180 nM in assay [1]; around 5000 nM in assay [2]; above 10000 nM in assay [3] (Measles morbillivirus, MeV); above 100000 nM in assay [4] (Human immunodeficiency virus 1, HIV); above 10000 nM in assay [5] (Hepatitis B virus, HBV). In assay [3], the “activity against Measles morbillivirus (MeV)” value was “inactive or has only minor activity”. For the same compound, the “activity against HIV” value in assay [4] was “does not act on HIV”. Also, the “activity against Hepatits B Virus (HBV)” value in assay [5] was “inactive or has only minor activity”. In addition, the EC50 in assay [6] (read-out: EC50 from plaque assays, DENV4, c.t.) was found to be 50 nM; in assay [6] (read-out: EC50 from plaque assays, DENV4, p.i.), 790 nM; in assay [7] (DENV2, read-out: EC50 from RT-qPCR analysis, DENV2, c.t.), 200 nM; in assay [7] (DENV2, read-out: EC50 from RT-qPCR analysis, DENV2, p.i.) it was 810 ± 480 nM; in assay [8], 830 ± 970 nM.
